Experimental findings from PMC8706516, “Spray-Dried Powder Formulation of Capreomycin Designed for Inhaled Tuberculosis Therapy” (Pharmaceutics, 2021) are described below.

Read-outs that look alike come from different tables or passages of the source. Marks after values point to notes of the source that are not given here.

The format of this series is in vivo, BALB/c mice. The following applies: 20 mg/kg. As for the experimental part: BALB/c mice of either gender aged 7 to 9 weeks weighing between 18 to 30 g were employed in this study. The mice were obtained from the Centre for Comparative Medicine Research, The University of Hong Kong. They were housed in a 12-h light/12-h dark cycle with food and water supplied ad libitum. All the animal experiments were performed with the approval from the Committee on the Use of Live Animals in Teaching and Research, The University of Hong Kong (CULATR 4921-19, approved on 1 February 2019).
The mice were randomly divided into two treatment groups (n = 45 per group, five mice per time point, nine time points in total). The intravenous (IV) group received capreomycin (sulfate) solution prepared in normal saline (4 mg/mL) via tail vein injection at a dose of 20 mg/kg. Intratracheal (IT) group received the C25_T90 formulation as powder aerosol intratracheally as previously described. In brief, the powder was loaded in a 200 µL gel loading pipette tip, which was connected with a three-way stopcock and 1 mL syringe. The pipette tip was inserted into the trachea of mice under anesthesia. The powder was dispersed into the lungs of mice by 0.6 mL of air in the syringe. After each powder insufflation, the pipette tip was removed and rinsed with 1 mL ultra-pure water. The rinsing solution was assayed by HPLC to calculate the residual mass of capreomycin in the tip. The delivered mass of capreomycin was calculated as drug content in the loaded mass of powder minus the residual mass of capreomycin in the tip. The insufflation efficiency (%) was the ratio of delivered mass of capreomycin to the loaded mass of capreomycin. According to a preliminary study, the insufflation efficiency of C25_T90 formulation was around 80% (unpublished data). […] The delivered dose within 17.5 to 22.5 mg/kg was considered successful administration, and mice that received dose outside this range were excluded. At 5 min, 15 min, 30 min, 1 h, 2 h, 4 h, 6 h, 8 h, and 24 h post-administration, the mice were euthanized with overdose pentobarbital (200 mg/kg). The whole blood was collected by cardiac puncture, followed by centrifugation at 13,000 rpm for 10 min to obtain the plasma. The lungs were collected and frozen in liquid nitrogen immediately. The plasma and lung tissues were stored at −80 °C until further analysis.
The extraction of capreomycin from plasma and tissue homogenates was performed according to a previous study with minor modification. Tissue homogenates were obtained by homogenizing the tissue with sterile water. A volume of 1 µL perchloric acid was added to a microcentrifuge tube containing 100 µL of plasma or tissue homogenates to induce protein precipitation. The mixtures were vortexed for 10 min and centrifuged at 16,000× g for 10 min. The supernatant was collected and neutralized with 110 µL basic mix of 1:10 KOH/K2HPO4 solution. The obtained mixtures were then vortexed, followed by centrifugation at 16,000× g for 15 min. The supernatant was transferred to glass vials for HPLC analysis. A standard curve was obtained by spiking known concentrations of capreomycin (0.6 to 40.0 µg/mL) into blank plasma or blank lung tissue homogenate followed by treatment as mentioned above. HPLC was performed using a C18 column (5 μm, 4.6 × 250 mm, Agilent, Santa Clara, CA, USA) with a guard cartridge. In this HPLC method, HFBA replaced TFA to improve peak resolution of the samples. The mobile phase consisted of 0.1% HFBA in ultrapure water (solvent A) and 0.1% HFBA in HPLC grade acetonitrile (solvent B), pumped at 1 mL/min under the following gradient: 0 to 2 min, 80% A; 2 to 22 min, 80–20% A; 22 to 25 min, 20% A (v/v). A volume of 50 µL sample was injected and capreomycin was detected by UV absorption at 268 nm. Capreomycin eluted at approximately 9.7 min with this method. […]

[1] abbreviates: lung tissue, intravenous solution.
The mark [2] stands for this setting: lung tissue, intravenous, solution in normal saline, HPLC-UV, noncompartmental, mean ± SD, n = 5.
Where [3] appears, read: lung tissue, intravenous, solution in normal saline, HPLC-UV, noncompartmental, mean ± SD, only three sets of data.
Setting [4] is: plasma, intravenous, solution in normal saline, HPLC-UV, noncompartmental, mean ± SD, n = 5.

As usually defined, the Cmax is the highest concentration seen after dosing. Broadly, the MRT is the average time that molecules of a dose stay in the body. For orientation: Tmax means the time at which the peak concentration occurs.

In the case of Capreomycin, under setting [1], the “Time after administration at which capreomycin was no longer detectable in the lung” value was 1 h and the “Time to Cmax” value is recorded as at most 20 min. Besides, under setting [2], the “AUC0–t” value is 6710 ± 510 ng·h/mL, the Cmax is recorded as 18.23 ± 8.34 µg/g, the mean residence time MRT came to 13.8 ± 7.8 min and the time to peak (Tmax) came to 7.2 ± 4.2 min. Under setting [3], the “AUC0–∞” value is 7.78 ± 0.46 ^b µg·h/mL, the Kel is 2.37 ± 0.23 ^b h^−1 and the t1/2 is on record as 0.29 ± 0.03 ^b h. In addition, under setting [4], the Cmax worked out at 74.89 ± 10.94 µg/mL, the “AUC0–t” value came to 32550 ± 5520 ng·h/mL, the “AUC0–∞” value was determined as 33.78 ± 5.54 µg·h/mL and the Kel is 2.74 ± 1.67 h⁻¹. Further, the t1/2 under setting [4] amounted to 0.34 ± 0.20 h. Further, the “Tmax” value (plasma, intravenous solution) is given as at most 10 min.
